In patent publication US9540358B2, “Tricyclic compounds as anticancer agents” (ICAHN SCHOOL OF MEDICINE AT MOUNT SINAI, priority 2011, dated 2017):

How the values were obtained:
H1650 lung cancer cells = experiment: Cell viability assay (MTT, IC50 determination); format: cell-based; details: Homo sapiens, NCI-H1650, 48 hours after drug treatment, MTT
Method: (§1) 89(22): p. […] H1650 lung cancer cells were plated at 150,000 cells per well in a 12 well plate. Twenty-four hours after plating, cells were treated as described with increasing concentrations of drug and control. Forty-eight hours after drug treatment, cells were treated with 100 μL of 3-(4,5-Dimethylthiazol-2-yl)-2,5-diphenyltetrazolium bromide (MTT) and incubated for 2 hours at 37 C. The MTT solution was subsequently replaced with 300 μL of n-propyl alcohol and re-aliquoted to a 96 well plates. Spectrophotometric analysis of each solution was performed using a 96 well plate reader at 600 nm in triplicate.

naïve CD4 T cells = experiment: Treg induction from naïve CD4 T cells (Foxp3 expression); format: cell-based
Method: Example 30 has been tested for its ability to induce Treg from naïve CD4 T cells. […] Fifty thousand CD4 naïve cells (CD62Lhi, CD25 low, CD4 positive) were incubated with 2 ng/mL TGFβ, 1 ug/mL anti-CD3, 100 ng/mL IL-2, 50000 APCs per well and the compounds 10 μM, 5 μM and 2.5 μM concentrations. The cells were incubated for 3 days and then stained for CD4 and Foxp3 expression. Results were expressed as fold increase over the % induced in control (DMSO) wells (typically 20-25% Foxp3+). AKTi, a small molecule AKT inhibitor, was used as a positive control; it induced about a 4-fold increase. […] The effects of Example 30 on iTreg induction are amplified as the TGFβ concentration decreases.

A549luc cells = experiment: Colony formation (clonogenic) assay, A549luc; format: cell-based; details: 7 days
Method: (§2) Protocol for clonogenic assay follows Sangodkar et al. J Clin Invest 2012; 122:2637-51.
(§3) Cell culture and staining: For both A549luc and H292 cells, 500 cells were seeded into each well of a 6-well plate and allowed to attach for 24 hours before drug treatment. The following day, cells were treated with either the appropriate dose of drug or an equivalent volume of DMSO (two replicates were treated for each condition). For each condition, depleted media was replaced with fresh media containing the equivalent drug dose four days after initial treatment. Cells were harvested either 7 (A549luc) or 8 (H292) days after initial treatment. Briefly, media was aspirated from each well and the cells were washed twice with ice-cold PBS, then plates were allowed to dry at room temperature for 4 hours. Cells were fixed for one hour in a fixing solution consisting of 10% methanol and 10% glacial acetic acid in distilled water, then stained overnight in 1% (w/v) crystal violet dissolved in methanol. The next day, staining solution was aspirated from the wells and plates were washed gently with distilled water to remove excess stain before colony counting. Colonies were imaged on a ChemiDoc XRS+ (Bio-Rad) and images were exported as 8-bit TIFF files. Colonies were counted using the Colony Counter plugin in ImageJ, with colony size defined as between 4 and 400 square pixels, and minimum circularity set at 0.6. Duplicate wells were averaged to obtain a single value for each condition. Results (number of colonies) for A549luc cells are shown in Table 2 and results (number of colonies) for H292 cells are shown in Table 3: […]

H292 cells = experiment: Colony formation (clonogenic) assay, H292; format: cell-based; details: 8 days
Method: as §2, §3

EGFR-L858R/CCSP mice = experiment: In vivo lung cancer model; details: i.p. 100 mg/kg every other day, two week treatment period, MRI; DMSO control 20% increase
Method: The in vivo lung cancer model is described in Politi et al., Genes Dev. Jun. 1, 2006 20: 1496-1510. EGFR-L858R/CCSP mice were fed doxycycline-impregnanted food pellets to induce tumor formation. After 8-12 weeks, mice were imaged in a Bruker 4.7T Biospec scanner to confirm lung nodule development. After tumor confirmation, the compound of Example 30 was prepared in DMSO (Sigma) and administered i.p. at 100 mg/kg every other day for two weeks. After treatment, the mice were re-imaged by MRI, and pre-treatment and post-treatment lung volumes were calculated by visible lung opacity present in each axial image using Osirix 4.1.1. DMSO control animals show a 20% increase in tumor volume over two week treatment period. Animals treated with the compound of Example 30 show a 60% decrease in tumor volume over two week treatment period.

alloreactive T cells = experiment: Suppression assay using induced Tregs; format: cell-based
[1] = test system: BALB/c hearts transplanted into fully allogeneic B6 recipients; experiment: Heart allograft survival; format: in vivo, mice; details: 100 mg/kg i.p., n=4, p<0.05 vs control; untreated rejected by day 8
Method: To test for a clinically relevant in vivo effect, BALB/c hearts were transplanted into fully allogeneic B6 recipients. While untreated animals rejected their grafts by day 8 n=4, the grafts in the mice treated with 100 mg/kg i.p. of Example 30 lasted 18 days n=4, p<0.05 vs control, a statistically and clinically significant effect.

[2] = Cell viability assay (MTT, IC50 determination); format: cell-based; details: human, H1650 lung cancer cells
Method: as §1

IC50 (H1650 lung cancer cells) [µM]	Compound	number of colonies (A549luc cells; 5 μM)	number of colonies (A549luc cells; 7.5 μM)	number of colonies (A549luc cells; 10 μM)	number of colonies (H292 cells; 5 μM)	number of colonies (H292 cells; 7.5 μM)	number of colonies (H292 cells; 10 μM)	other results
20	O=S(=O)(NCCN1c2ccccc2Sc2ccc(Cl)cc21)c1ccc(Cl)cc1 [Example 27, 4-chloro-N-(2-(2-chloro-10H-phenothiazin-10-yl)ethyl)benzenesulfonamide]	–	–	–	–	–	–	fold increase in iTreg over control (DMSO) wells (naïve CD4 T cells; at 5 μM, 3 days, 2 ng/mL TGFβ): 2 fold
–	O=S(=O)(NCCCN1c2ccccc2CCc2ccc(Cl)cc21)c1cnc(Cl)c(Br)c1 [Example 63, 5-Bromo-6-chloro-N-(3-(3-chloro-10,11-dihydro-5H-dibenzo[b,f]azepin-5-yl)propyl)pyridine-3-sulfonamide]	–	–	–	–	–	–	viability at 48 h, 20 µM ([2]; @ 20 μM): 65%
~15	O=S(=O)(NC[C@H](O)CN1c2ccccc2CCc2ccccc21)c1ccc(OC(F)(F)F)cc1 [Example 75, (R)—N-(3-(10,11-dihydro-5H-dibenzo[b,f]azepin-5-yl)-2-hydroxypropyl)-4-(trifluoromethoxy)benzenesulfonamide]	133.5	105	63.5	109.5	80	47	–
–	O=S(=O)(NCCCN1c2ccccc2CCc2ccccc21)c1cccnc1 [Example 89]	–	–	–	–	–	–	viability at 48 h, 40 µM ([2]; @ 40 μM): 50%
–	O=C(CCCN1CCC(O)(c2ccc(Cl)cc2)CC1)c1ccc(F)cc1 [Haloperidol, reference compound]	–	–	–	–	–	–	fold increase in iTreg (Foxp3+) over control (DMSO) wells (naïve CD4 T cells; control compounds, concentration not given, 3 days, 2 ng/mL TGFβ): did not induce a statistically significant increase

Compound	IC50 (H1650 lung cancer cells) [µM]	number of colonies (A549luc cells; 5 μM)	number of colonies (A549luc cells; 7.5 μM)	number of colonies (A549luc cells; 10 μM)	number of colonies (H292 cells; 5 μM)	number of colonies (H292 cells; 7.5 μM)	number of colonies (H292 cells; 10 μM)	other results
O=S(=O)(NCCCN1c2ccccc2CCc2ccc(Cl)cc21)c1ccc(OC(F)(F)F)cc1 [Example 30, N-(3-(3-chloro-10,11-dihydro-5H-dibenzo[b,f]azepin-5-yl)propyl)-4-(trifluoromethoxy)benzenesulfonamide]	12.6	116	111.5	67.5	95	74.5	61	decrease in tumor volume (EGFR-L858R/CCSP mice): 60%; fold increase in iTreg over control (DMSO) wells (naïve CD4 T cells; at 2.5 μM, 3 days, 2 ng/mL TGFβ): greater than 2 fold; upregulation of Foxp3 (naïve CD4 T cells; naïve polyclonal T cells treated with TGFβ and TCR transgenic T cells stimulated in vivo during costimulatory blockade): facilitated upregulation of Foxp3; suppressive capacity of iTreg induced with or without compound (% inhibition of maximal proliferation) (alloreactive T cells): equivalent suppressive capacity; heart graft survival [1]: 18 days
